Results as given in patent US12303512B2, “Therapeutically active compounds and their methods of use” (Servier Pharmaceuticals LLC, priority 2021, dated 2025).

Test: Absorption, distribution, metabolism and excretion of oral [14C]vorasidenib in humans; metabolite profiling in plasma, urine, feces
Settings: human, in vivo
Experimental: Metabolite profiling and identification of vorasidenib (AG-881) was performed in plasma, urine, and fecal samples collected from five healthy subjects after a single 50-mg (100 μCi) oral dose of [14C]AG-881 and concomitant intravenous microdose of [^13C3 ^15N3]AG-881.
Plasma samples collected at selected time points from 0 through 336 hour postdose were pooled across subjects to generate 0- to 72 and 96-336-hour area under the concentration-time curve (AUC)-representative samples. Urine and feces samples were pooled by subject to generate individual urine and fecal pools. Plasma, urine, and feces samples were extracted, as appropriate, the extracts were profiled using high performance liquid chromatography (HPLC), and metabolites were identified by liquid chromatography-mass spectrometry (LC-MS and/or LC-MS/MS) analysis and by comparison of retention time with reference standards, when available.
Due to low radioactivity in samples, plasma metabolite profiling was performed by using accelerator mass spectrometry (AMS). In plasma, AG-881 was accounted for 66.24 and 29.47% of the total radioactivity in the pooled AUC0-72 h and […] plasma, respectively. The most abundant radioactive peak (P7; M458) represented 0.10 and 43.92% of total radioactivity for pooled AUC0-72 and AUC96-336 h plasma, respectively. All other radioactive peaks accounted for less than 6% of the total plasma radioactivity and were not identified.

| radioactivity recovered in feces, % of the dose | unchanged parent detected in urine | radioactivity recovered in urine, % of the dose | SMILES |
| --- | --- | --- | --- |
| 55.5 % of the dose | no AG-881 was detected |  | C[C@@H](Nc1nc(N[C@H](C)C(F)(F)F)nc(-c2cccc(Cl)n2)n1)C(F)(F)F [AG-881, 6-(6-chloropyridin-2-yl)-N2, N4-bis((R)-1,1,1-trifluoropropan-2-yl)-1,3,5-triazine-2,4-diamine, reference compound] |
|  |  | 2.54 % of the dose | CS(=O)(=O)c1cccc(-c2nc(N)nc(N)n2)n1 [Compound M266] |
| 2-5 % of the dose |  |  | C[C@@H](Nc1nc(N[C@H](C)C(F)(F)F)nc(-c2cccc(S(=O)(=O)O)n2)n1)C(F)(F)F [Compound M460-1] |
| 2-5 % of the dose |  |  | C[C@@H](Nc1nc(N[C@H](C)C(F)(F)F)nc(-c2cccc(SCC(N)C(=O)O)n2)n1)C(F)(F)F (some centres unmarked) [Compound M499] |
